Measured values from US20250034413A1, “METHODS FOR DECELLULARIZING ANIMAL TISSUE AND BIOINKS DERIVED THEREFROM” (VIRGINIA COMMONWEALTH UNIVERSITY, priority 2021, published 2025).
Entries after “also recorded” stand apart in the source; their conditions may differ.

How the values were obtained:
[1] = system: AGEs in human DMM; assay: Reduction of AGEs in human decellularized muscle matrix (DMM) from MTF Biologics; assay type: biochemical; conditions: older human samples, 10 mM ALT-711, 37° C., 5 days
Experimental: Exemplary method for reducing AGEs in decellularized muscle xi. 10 mM ALT-711 is added to each well, and then placed in the 37° C. incubator for 5 days.
xii. After 5 days, the samples are washed 3 times with diH20 each, and then the samples are frozen at −80° C.
In addition, human decellularized muscle from MTF Biologics was also tested for feasibility to reduce AGEs in older human samples using the same protocol as described above.

[2] = system: AGEs in decellularized muscle matrix (DMM); assay: Reduction of AGEs in decellularized mouse gastrocnemius muscle matrix (DMM); assay type: biochemical; conditions: C57BL6 mouse gastrocnemius, 2-month vs 20-month; 10 mM ALT-711, 37° C., 5 days; FIG. 3
Experimental: • i. Gastrocnemius is thawed in a 37° C. water bath and then butterflied. • ii. The muscles are washed in a T-25 flask (standing vertical) with 20 ml of deionized water per well 3 times for 10 minutes each. • iii. Tissue is then treated with 20 ml of 0.25% Trypsin for 12-16 hours in a T-25 flask (standing vertical) on an orbital shaker plate. Use tape to secure the flask in a vertical position. • iv. Trypsin treatment is followed by 3 20 ml 15 minute deionized water washes per well. • v. Tissue is treated with 20 mL of 0.1% TRITON X-100™ in a T-25 flask for 8 hours at 4° C. The volume is replaced with fresh TRITON X-100™ and the tissue is treated for another 16 hours. Treatment is followed by 3 20 ml 15 minute deionized water washes per well. • vi. Samples are placed in 20 mL of 60 mM sodium deoxycholate with 0.6 mM SB-16 for 8 hours in a T-25 flask at 4° C. The volume is replaced with fresh sodium deoxycholate and SB-16 and the tissue is treated for another 16 hours. • vii. Samples are washed as described in deionized water and placed in 20 mL of 70 mM CHAPS for 8 hours in a T-25 mL flask at 4° C. The volume is replaced with fresh CHAPS and the tissue is treated for another 16 hours. • viii. […]

`Cc1sc[n+](CC(=O)c2ccccc2)c1C.[Cl-]` [ALT-711, alargebrium chloride 711] was tested, and the “AGEs normalized to protein” value ([1]; FIG. 4A) was “reduced AGEs”, the “AGEs normalized to hydroxyproline” value ([1]; FIG. 4B) was “reduced AGEs” and the “level of AGEs in decellularized muscle matrix (DMM)” value [2] was “reduced levels of AGEs; also recorded: reduces the higher level of AGEs seen in the 20-month decellularized muscle matrix (DMM) to young adult levels”.
